# “Also recorded” adds a separate entry of the source.
# Molecular target: T1, BTK (Homo sapiens (Human), UniProt Q06187)
# Assay: Washout experiment with Ramos cells (PLCγ2 phosphorylation)
# Format: cell-based
# Settings: Ramos washout assay, 100 nM compound for 1 hour
# Experimental: Washout Experiment with Ramos Cells
# Ramos cells were serum starved for one hour in RPMI media +1% glutamine at 37° C. After starvation, Ramos cells were treated with 100 nM compound diluted in serum free RPMI media for 1 hour. After compound treatment, the media was removed and cells were washed with compound-free media. Subsequently, Ramos cells were washed every 2 hours and resuspended in fresh compound-free media. Cells were collected at specified timepoints, treated with 1 ug anti-human IgM (Southern Biotech cat #2022-01) for 10 minutes on ice to induce BCR signaling and then washed in PBS. Ramos cells were then lysed in Cell Extraction Buffer (Invitrogen FNN0011) supplemented with Roche complete protease inhibitor tablets (Roche 11697498001) and phosphatase inhibitors (Roche 04 906 837 001) and 18 ug total protein lysate was loaded in each lane. Inhibition of BTK kinase activity was assayed by measuring its substrate (PLCγ2) phosphorylation by western blot with phospho-specific antibodies from Cell Signaling Technologies cat#3871. The results of this experiment with compounds I-2, I-4 and I-7 are depicted in FIGS. 1, 2 and 3.
# T1 sequence (Q06187 whole entry): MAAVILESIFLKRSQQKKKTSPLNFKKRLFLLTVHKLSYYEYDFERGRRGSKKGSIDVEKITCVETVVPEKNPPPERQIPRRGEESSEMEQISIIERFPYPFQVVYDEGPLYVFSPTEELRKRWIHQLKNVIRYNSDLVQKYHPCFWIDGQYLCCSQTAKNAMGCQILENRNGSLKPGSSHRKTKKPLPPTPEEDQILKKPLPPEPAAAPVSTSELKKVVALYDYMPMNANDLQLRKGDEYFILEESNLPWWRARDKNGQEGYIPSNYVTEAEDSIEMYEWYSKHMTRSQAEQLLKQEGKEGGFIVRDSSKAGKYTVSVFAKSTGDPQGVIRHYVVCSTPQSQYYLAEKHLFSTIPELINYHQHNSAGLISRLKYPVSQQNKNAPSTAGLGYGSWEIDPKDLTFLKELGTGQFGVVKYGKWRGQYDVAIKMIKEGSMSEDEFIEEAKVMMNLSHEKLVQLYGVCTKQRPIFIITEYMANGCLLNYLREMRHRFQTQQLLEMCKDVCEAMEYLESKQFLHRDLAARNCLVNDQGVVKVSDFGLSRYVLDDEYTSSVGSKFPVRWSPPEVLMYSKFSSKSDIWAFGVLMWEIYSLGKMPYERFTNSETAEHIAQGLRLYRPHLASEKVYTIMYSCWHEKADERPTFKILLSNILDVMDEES
row,Compound,BTK Inhibition Type
1,"C=CC(=O)Nc1cccc(Nc2ncc(C)c(Nc3cccc(C)c3)n2)c1 [Compound I-2, N-(3-(5-methyl-4-(m-tolylamino)pyrimidin-2-ylamino)phenyl) acrylamide]",irreversible
2,"C=CC(=O)Nc1cccc(Nc2nc(Nc3ccccc3)ncc2F)c1 [Compound I-28, N-(3-(5-fluoro-2-(phenylamino)pyrimidin-4-ylamino)phenyl)acrylamide]",irreversible
3,"C#CCOc1cccc(Nc2ncc(C)c(Nc3cccc(NC(=O)C=C)c3)n2)c1 [Compound I-35, N-(3-(5-methyl-2-(3-(prop-2-ynyloxy)phenylamino)pyrimidin-4-ylamino)phenyl) acrylamide]",irreversible
4,"Cc1cnc(Nc2ccccc2)nc1Nc1cccc(NC(=O)/C=C/CN(C)C)c1 [Compound I-38, (E)-4-(dimethylamino)-N-(3-(5-methyl-2-(phenylamino)pyrimidin-4-ylamino)phenyl)but-2-enamide]",reversible

# Other lines, results leading:
row,BTK Inhibition Type,Compound
1,irreversible,"C=CC(=O)Nc1cccc(Oc2nc(Nc3ccccc3)ncc2F)c1 [Compound I-228, N-(3-(5-fluoro-2-(phenylamino)pyrimidin-4-yloxy)phenyl)acrylamide]"
2,irreversible,"C=CC(=O)Nc1cccc(Nc2nc(Nc3ccccc3)ncc2C(N)=O)c1 [Compound I-230, 4-(3-acrylamidophenylamino)-2-(phenylamino)pyrimidine-5-carboxamide]"
3,irreversible,"C=CC(=O)Nc1cccc(Nc2nc(Nc3cccc(OC)c3)ncc2C(F)(F)F)c1 [Compound I-242, N-(3-(5-trifluoromethyl-2-(3-methoxyphenylamino)pyrimidin-4-ylamino)phenyl)acrylamide]"
4,irreversible,"C=CC(=O)Nc1cccc(Nc2nc(Nc3ccc(OC)nc3)ncc2F)c1 [Compound I-243, N-(3-(5-fluoro-2-(6-methoxypyridin-3-ylamino)pyrimidin-4-ylamino)phenyl)acrylamide]"
5,irreversible,"C=CC(=O)Nc1cccc(Nc2nc(Nc3ccc(F)cc3)ncc2F)c1 [Compound I-247, N-(3-(5-fluoro-2-(4-fluorophenylamino)pyrimidin-4-ylamino)phenyl)acrylamide]"
6,irreversible,"C=CC(=O)Nc1cccc(Oc2nc(Nc3ccccc3)ncc2C)c1 [Compound I-248, N-(3-(5-methyl-2-(phenylamino)pyrimidin-4-yloxy)phenyl)acrylamide]"

# Molecular target: T1, BTK
# Assay: Mass spectrometry for BTK (intact protein, covalent modification)
# Format: binding
# Settings: intact BTK, 1 hr, 10× fold excess of compound
# Experimental: Mass Spectrometry for BTK
# Intact BTK was incubated for 1 hr at a 10× fold excess of I-7 to protein. Aliquots (2 μl) of the samples were diluted with 10 μl of 0.1% TFA prior to micro C4 ZipTipping directly onto the MALDI target using Sinapinic acid as the desorption matrix (10 mg/ml in 0.1% TFA:Acetonitrile 20:80).
row,covalent modification of BTK by mass spectrometry,Compound
1,completely modify,"C=C(C#N)C(O)c1cccc(Nc2nc(Nc3ccc(OCCOC)cc3)ncc2F)c1 (stereo not shown) [Compound I-71, 2-((3-(5-fluoro-2-(4-(2-methoxyethoxy)phenylamino)pyrimidin-4-ylamino)phenyl)(hydroxy)methyl)acrylonitrile]"
2,completely modify,"C=CC(=O)Nc1cccc(Nc2nc(Nc3ccc(OCCOC)c(F)c3)ncc2F)c1 [Compound I-96, N-(3-(2-(3-fluoro-4-(2-methoxyethoxy)phenylamino)-5-fluoropyrimidin-4-ylamino)phenyl)acrylamide]"
3,completely modify,"C=CC(=O)N1CCOc2ccc(Nc3ncc(F)c(Nc4cccc(Cl)c4)n3)cc21 [Compound I-149, 1-(6-(4-(3-chlorophenylamino)-5-fluoropyrimidin-2-ylamino)-2H-benzo[b][1,4]oxazin-4(3H)-yl)prop-2-en-1-one]"
4,completely modify,"C=C(C#N)C(O)c1ccc(Nc2nc(Nc3ccccc3)ncc2F)cc1 (stereo not shown) [Compound I-161, 2-((4-(5-fluoro-2-(phenylamino)pyrimidin-4-ylamino)phenyl)(hydroxy)methyl)acrylonitrile]"
5,completely modify,"C=CC(=O)Nc1cccc(Nc2nc(Nc3ccc(OCCOC)cc3)ncc2F)c1 [Compound I-182, N-(3-(5-fluoro-2-(4-(2-methoxyethoxy)phenylamino)pyrimidin-4-ylamino)phenyl)acrylamide]"
6,completely modify,"C=CC(=O)N1CCC[C@@H](Nc2nc(Nc3cccc(OC)c3)ncc2F)C1 [Compound I-195, (R)-1-(3-(5-fluoro-2-(3-methoxyphenylamino)pyrimidin-4-ylamino)piperidin-1-yl)prop-2-en-1-one]"
7,completely modify,CC(C)=CC(=O)c1cccc(Nc2nc(Nc3cccc(OCCN(C)C)c3)ncc2F)c1 [Compound I-207]
8,completely modify,"C=CC(=O)N(C)Cc1ccc(Nc2nc(Nc3ccccc3)ncc2C)cc1 [Compound I-219, N-methyl-N-(4-(5-methyl-2-(phenylamino)pyrimidin-4-ylamino)benzyl)acrylamide]"
9,completely modify,"C=CC(=O)Nc1cccc(Nc2nc(Nc3cccc(OC(F)(F)F)c3)ncc2F)c1 [Compound I-244, N-(3-(5-fluoro-2-(3-(trifluoromethoxy)phenylamino)pyrimidin-4-ylamino)phenyl)acrylamide]"

row,Compound,covalent modification of BTK by mass spectrometry
1,2-((4-(5-fluoro-2-(3-trifluoromethoxyphenylamino)pyrimidin-4-ylamino)phenyl)(hydroxy)methyl)acrylonitrile [Compound I-163],completely modify

# Molecular target: TEC kinase (Homo sapiens (Human), UniProt P42680)
# Assay: Mass spectrometry for TEC kinase (tryptic digest)
# Format: binding, Homo sapien
# Settings: 3 hrs at 10× excess, peptide GCLLNFLR
# Experimental: Mass Spectrometry for TEC Kinase (Compound I-2)
# (§1) TEC kinase (45 pmols; Invitrogen) was incubated with (I-2) (450 pmols) for 3 hrs at 10× excess prior to tryptic digestion. Iodoacetamide was used as the alkylating agent after compound incubation. […] For tryptic digests a 5 ul aliquot (7.5 pmols) was diluted with 15 ul of 0.1% TFA prior to micro C18 Zip Tipping directly onto the MALDI target using alpha cyano-4-hydroxy cinnamic acid as the matrix (5 mg/ml in 0.1% TFA:Acetonitrile 50:50).
# (§2) For tryptic digests the instrument was set in Reflectron mode with a pulsed extraction setting of 2200. Calibration was done using the Laser Biolabs Pep Mix standard ([…], 1296.69, 1672.92, 2093.09, 2465.20). For CID/PSD analysis the peptide was selected using cursors to set ion gate timing and fragmentation occurred at a laser power about 20% higher and He was used as the collision gas for CID. Calibration for fragments was done using the P14R fragmentation calibration for the Curved field Reflectron.
# Mass Spectrometry for TEC Kinase (Compound I-4)
# as §1, with “(I-4)” for “(I-2)”
# as §2, with “1800.” for “2200.”
# Mass Spectrometry for TEC Kinase (Compound I-7) […]
# Chain of TEC kinase (P42680 whole entry): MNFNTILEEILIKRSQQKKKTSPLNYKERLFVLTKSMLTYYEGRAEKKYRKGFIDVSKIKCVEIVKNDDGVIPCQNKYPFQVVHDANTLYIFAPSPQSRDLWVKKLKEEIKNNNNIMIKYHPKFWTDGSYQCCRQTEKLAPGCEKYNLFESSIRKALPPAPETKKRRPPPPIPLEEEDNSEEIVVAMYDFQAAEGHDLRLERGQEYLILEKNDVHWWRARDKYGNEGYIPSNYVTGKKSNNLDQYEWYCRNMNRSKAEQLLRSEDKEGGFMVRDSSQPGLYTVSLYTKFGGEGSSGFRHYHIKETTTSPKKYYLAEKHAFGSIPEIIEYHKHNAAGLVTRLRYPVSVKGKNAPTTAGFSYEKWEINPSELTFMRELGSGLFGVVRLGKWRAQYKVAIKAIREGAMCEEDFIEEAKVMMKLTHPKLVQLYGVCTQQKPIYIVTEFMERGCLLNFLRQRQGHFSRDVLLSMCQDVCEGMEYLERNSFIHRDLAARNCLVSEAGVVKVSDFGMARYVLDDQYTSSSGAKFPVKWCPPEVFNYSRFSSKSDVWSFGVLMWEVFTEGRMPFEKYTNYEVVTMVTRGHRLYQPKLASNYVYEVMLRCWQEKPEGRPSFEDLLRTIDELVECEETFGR
row,Compound,covalent modification of TEC kinase by mass spectrometry
1,"C=CC(=O)Nc1cccc(Nc2ncc(C)c(Nc3cccc(C)c3)n2)c1 [Compound I-2, N-(3-(5-methyl-4-(m-tolylamino)pyrimidin-2-ylamino)phenyl) acrylamide]",covalent modification of TEC kinase at Cys449; also recorded: reaction was complete

# Molecular target: T1, BTK
# Assay: BTK occupancy from in vitro samples by ELISA (Ramos cells, probe I-215)
# Format: cell-based
# Settings: probe I-215 ELISA
# Source text: Measuring BTK occupancy from in vitro samples by ELISA
# In order to determine the amount of free BTK in cell or tissue lysates, an ELISA protocol was employed that utilizes a biotinylated probe compound that binds only to free, unoccupied BTK. The conjugated biotin is captured on a streptavidin-coated ELISA plate and detected with a mouse anti-BTK antibody (Becton Dickinson, Franklin Lakes, N.J., USA) and a secondary goat anti-mouse HRP antibody (Zymed, South San Francisco, Calif., USA).
# All samples were prepared with equal concentrations of Biorad lysis buffer (Hercules, Calif., USA), 0.5% bovine serum albumin in PBS with 0.05% Tween-20 to give a final concentration of 1 μM I-215. Samples were incubated in a mixing plate for 1 hr at room temperature while shaking to allow probe compound I-215 to bind to free BTK. After incubation with I-215, samples were added to a washed, streptavidin-coated ELISA plate (Pierce, Rockford, Ill., USA) and incubated for 1 hr at room temperature while shaking. The plate was then washed with PBS containing 0.05% Tween-20 using an automatic plate washer. Anti-BTK antibody was prepared at 1:1000 dilution in 0.5% BSA in PBS (0.05% Tween-20) and added to the ELISA plate. The plate was incubated for 1 hr at room temperature while shaking. The plate was washed as described above and the secondary HRP antibody was prepared at 1:5000 dilution in 0.5% BSA in PBS (0.05% Tween-20). The plate was incubated and washed as described above. TMB was added to the plate, and OD650 was monitored until reaching 1 OD unit. The reaction was then stopped with addition of H2SO4. The plate was analyzed using Gen 5 software, and a 4 Parameter Logistic curve was employed to quantitate samples. Recombinant BTK (Invitrogen, Carlsbad, Calif., USA) was used for the standard curve.
# A concentration designated as “A” is greater than 1 nM; a concentration designated as “B” is greater than 10 nM; and a concentration designated as “C” is greater than 50 nM.
concentration at which >50% of BTK is occupied,concentration at which >90% of BTK is occupied,Compound
A (greater than 1 nM),B (greater than 10 nM),"C=CC(=O)Nc1cccc(Nc2nc(Nc3ccc(OCCOC)c(F)c3)ncc2F)c1 [Compound I-96, N-(3-(2-(3-fluoro-4-(2-methoxyethoxy)phenylamino)-5-fluoropyrimidin-4-ylamino)phenyl)acrylamide]"
A (greater than 1 nM),C (greater than 50 nM),"C=CC(=O)Nc1cccc(Nc2nc(Nc3ccc(OCCOC)cc3)ncc2F)c1 [Compound I-182, N-(3-(5-fluoro-2-(4-(2-methoxyethoxy)phenylamino)pyrimidin-4-ylamino)phenyl)acrylamide]"
